# Laboratory results published in patent US20110166066A1, “CATESTATIN (CST) AND ITS VARIANTS FOR TREATMENT OF CARDIOVASCULAR AND METABOLIC DISORDERS” (priority 2008, published 2011).
# No end group written: not given here.
# How the values were obtained:
# [1] = test system: Langendorff perfused rat heart; test: WT-CST inotropism/lusitropism in presence of adrenergic, cholinergic, Gi/o and NO-pathway inhibitors (Langendorff heart); conditions: for Negative inotropism with muscarinic receptor antagonist: WT-CST 110 nM + Atropine 10 nM; for Negative inotropism with β-adrenoceptor antagonist: WT-CST 110 nM + Nadolol 10 nM; for Negative inotropism with α-adrenoceptor antagonist: WT-CST 110 nM + Phentolamine 100 nM; for Negative inotropism with Gi/o protein inhibition: WT-CST 110 nM after PTx 0.01 nM; for LVP change: preliminary experiments
# Description: Adrenergic and cholinergic receptors involvement—To obtain information on the involvement of β1/β2, α-adrenergic receptors (ARs) and cholinergic receptors (AchR) on the inotropic and lusitropic effects induced by WT-Cts, cardiac preparations, stabilized for 20 min with KHs, were perfused with Nadolol (10 nM) or Phentolamine (100 nM) or Atropine (10 nM) for 10 min and then washed-out with KHs. After returning to control conditions, each heart was perfused with KHs containing a single concentration of Cts WT (110 nM) plus Nadolol (10 nM) or Phentolamine (100 nM) or Atropine (10 nM) for an additional 10 min.
# Involvement of inhibitory G-protein (Gi/o)—To evaluate the involvement of inhibitory G-proteins in the cardiac action of WT-Cts, hearts were preincubated for 60 min with KHs enriched with pertussis toxin (PTx: 0.01 nM) and then exposed for 10 min to WT-Cts (110 nM). PTx catalyzes ADP-ribosylation of Gi/o alpha-subunit, uncoupling Gi-membrane receptor interaction.
# NO-pathway inhibitor stimulated preparations—Hearts were stabilized for 20 min with KHs, perfused with 110 nM WT-Cts for 10 min and then the peptide was washed-out with KHs. After returning to control conditions, each heart was perfused with KHs containing either the NO scavenger PTIO, the non-specific NOS inhibitor L-NMMA, a soluble guanylate cyclase inhibitor (ODQ) or a protein kinase G blocker (KT5823). Subsequently, the hearts were exposed to the specific signaling inhibitor plus 110 nM of WT-Cts.
# C57/BL/6J mice cornea = test: Cornea neovascularisation assay; type: in vivo; conditions: pellet 500 ng, day 7
# Description: Cornea Neovascularisation Assay. Pellets containing 500 ng Catestatin were implanted in C57/BL/6J mice (age of 8 weeks) as described (36). On postoperative day 7 mice received an intravenous injection of 500 μg BS1 lectin conjugated to FITC (Vector Laboratories). After euthanasia, enucleated eyes were fixed in 1% paraformaldehyde, corneas dissected and examined by fluorescence microscopy.
# eNOS = eNOS signalling by immunoblotting of mouse tissues; type: in vivo; conditions: CgA-KO mice
# From the text: Adult WT (C57BL/6) and CgA-KO mice with mixed genetic background (129svJ×C57BL/6) were used in this study. Both WT and KO mice were generated from the original founder carrying mixed genotype (50% 129svJ: 50% C57BL/6) and were maintained by brother/sister mating. Hypertensive CGA-KO mice will serve as a model for hyper insulin sensitivity. WT mice were fed 60% high fat diet (HFD) for 20 weeks. Body weight and blood glucose levels were monitored and glucose and insulin tolerance testa were performed to determine status of insulin resistance. After 20 weeks of HFD feeding mice were injected IP with catestatin (40 μg/gm body weight) twice daily for 7 days. On the 8th day, 12 hours fasted mice were subjected to glucose tolerance tests to determine their insulin sensitivity. Tissues of WT and CgA-KO mice are analyzed AMPK and eNOS signalling by immunoblotting.
# [2] = test system: Langendorff perfused rat heart; test: ET-1 stimulated Langendorff heart preparations
# Description: ET-1 stimulated preparations—Hearts, stabilized for 20 min with KHs, were perfused for 10 min with ET-1 (1 nM) and then washed-out with KHs. After returning to control conditions, each heart was perfused with KHs containing a single concentration of either WT-Cts (33 nM), P370L-Cts (110 nM) or G364S-Cts (200 nM) plus 1 nM ET-1 for a further 10 min.
# [3] = test system: Langendorff perfused rat heart; test: Isoproterenol stimulated Langendorff heart preparations; conditions: ISO 0.1 nM to 1 μM; WT-CST 33 and 110 nM, G364S-CST 200 nM, P370L-CST 165 nM
# [4] = test system: WT and Chga knockout (KO) mice; test: Plasma catecholamine assay; type: in vivo; conditions: CST 40 μg/g bw ip for 30 min
# Description: Catecholamine assay following immobilization stress: Mice were anesthetized by inhalation of “Isoflurane, USP” and blood was collected from the left ventricle in potassium EDTA tubes. […] Plasma catecholamine was measured by HPLC connected to an electrochemical detector (Waters 600E Multisolvent Delivery system and Waters 2465 Electrochemical Detector, MA) in a group of restraint mice (non-telemetered). Separation was performed on an Atlantis dC18 column (2.1×150 mm, 3 μm) from Waters. The mobile phase (0.15 ml/min) consisted of phosphate-citrate buffer and 2.2% N, N-Dimethylacetamide and acetonitrile at 95:5 (V/V). An internal standard 3,4-Dihydroxybenzylamine (DHBA, 1 ng) and an antioxidant sodium meta-bisulfite (final concentrations of 0.125 mM) were added to 0.25 ml of plasma. Following the addition of 15 mg of alumina (Aluminium oxide, Activity Grade: Super I, Type WA-4, Sigma-Aldrich, PA), the pH of the solution was raised to pH 8.6 by adding Tris buffer (0.96 M Tris, 50 mM EDTA, pH 8.69). Following a 30 min incubation and centrifugation (5000 rpm, 5 min), the supernatant was discarded and the beads were washed with water. The catecholamine was eluted with […] of 0.1 N HCl supplemented with 0.1 mM sodium meta-bisulfite. The data were analyzed using Empower software. Catecholamine levels were normalized with the recovery of internal standard.
sequence,measurement,setting,value
"SSMKLSFRARAYGFRGPGPQL [WT-CST, catestatin]",Negative inotropism with muscarinic receptor antagonist,[1],remained unaffected
same,Negative inotropism with muscarinic receptor antagonist,[1]; listed as WT-Cts,Unchanged
same,CST-induced changes in cardiac performance with PKG inhibition by KT5823,[1]; WT-CST 110 nM + KT5823 0.1 μM,failed to affect
same,Negative inotropism and lusitropism with NOS inhibition by L-NMMA,[1]; WT-CST 110 nM + L-NMMA 10 μM,abolished
same,Negative inotropism with β-adrenoceptor antagonist,[1],abolished
same,Negative inotropism with β-adrenoceptor antagonist,[1]; listed as WT-Cts,Abolished
same,Negative inotropism and lusitropism with sGC blockade by ODQ,[1]; WT-CST 110 nM + ODQ 10 μM,abolished
same,Negative inotropism and lusitropism with NO removal by PTIO,[1]; WT-CST 110 nM + PTIO 10 μM,abolished
same,Negative inotropism with α-adrenoceptor antagonist,[1],reduced
same,Negative inotropism with α-adrenoceptor antagonist,[1]; listed as WT-Cts,Reduced
same,Negative inotropism with Gi/o protein inhibition,[1],abolished
same,Negative inotropism with Gi/o protein inhibition,[1]; listed as WT-Cts,Abolished
same,Negative inotropism with eNOS-NO-cGMP-PKG pathway inhibition,"[1]; WT-CST 110 nM, Table 1",Abolished
same,LVP change,[1]; WT-Cts + L-NIO (eNOS selective inhibitor),5.04±1.69
same,LVP change,[1]; WT-Cts + Vinyl-L-NIO (nNOS selective inhibitor),−13.14±2.25
same,LVP change,[1]; WT-Cts alone,−18.19±2.27
same,Angiogenesis in the cornea,C57/BL/6J mice cornea,induced growth of arteries
same,eNOS signal,eNOS,reduced
same,ET-1 induced positive inotropism,"[2]; ET-1 1 nM, WT-CST 33 nM, P370L-CST 110 nM, G364S-CST 200 nM",blocked
same,Effect on LVP and +(LVdP/dT)max,[2]; higher doses (10 nM),decreased
same,ISO-induced stimulation of LVP (concentration-response),[3],significantly inhibited
same,Basal plasma norepinephrine and epinephrine,[4],returned to WT level
